# In US10106559B2, “Substituted tetrahydrocarbazole and carbazole carboxamide compounds” (BRISTOL-MYERS SQUIBB COMPANY, priority 2013, dated 2018):
# Test system: CD69 expression on B cells in human whole blood
# Assay: Whole Blood Assay of BCR-Stimulated CD69 Expression on B Cells
# Assay type: cell-based
# Details: B-cell
row,IC50 [µM],SMILES
1,0.088,"Cc1c(-c2c(F)cc(C(N)=O)c3[nH]c4c(c23)CC[C@H](C(C)(C)O)C4)cccc1-n1c(=O)cc2c(Cl)cccn2c1=O (single isomer, unassigned) [Example 64]"
2,0.074,"[2H]C([2H])([2H])n1c(=O)n(-c2cccc(-c3c(F)cc(C(N)=O)c4[nH]c5c(c34)CC[C@H](C(C)(C)O)C5)c2C)c(=O)c2cccc(F)c21 (single isomer, unassigned) [Example 62]"
3,0.2,"Cc1c(-c2c(Cl)cc(C(N)=O)c3[nH]c4c(c23)CC[C@H](C(C)(C)O)C4)cccc1-n1c(=O)c2cccc(F)c2n(C)c1=O [Example 25, 6-Chloro-5-(3-(8-fluoro-1-methyl-2,4-dioxo-1,2-dihydroquinazolin-3(4H)-yl)-2-methylphenyl)-2-(S)-(2-hydroxypropan-2-yl)-2,3,4,9-tetrahydro-1H-carbazole-8-carboxamide]"
4,0.2,"COc1cccn2c(=O)n(-c3cccc(-c4c(Cl)cc(C(N)=O)c5[nH]c6cc(C(C)(C)O)ccc6c45)c3C)c(=O)cc12 [Example 37, 3-Chloro-7-(2-hydroxypropan-2-yl)-4-(3-(5-methoxy-1,3-dioxo-1H-pyrido[1,2-c]pyrimidin-2(3H)-yl)-2-methylphenyl)-9H-carbazole-1-carboxamide]"
5,0.054,"Cc1c(-c2c(Cl)cc(C(N)=O)c3[nH]c4c(c23)CC[C@H](C(C)(C)O)C4)cccc1-n1c(=O)[nH]c2c(F)cc(F)cc2c1=O (single isomer, unassigned) [Example 57]"
6,0.11,"Cc1c(-c2c(Cl)cc(C(N)=O)c3[nH]c4cc(C(C)(C)O)ccc4c23)cccc1-n1c(=O)[nH]c2c(F)cc(F)cc2c1=O (racemic) [Example 10, 3-Chloro-4-(RS)-(3-(RS)-(6,8-difluoro-2,4-dioxo-1,2-dihydroquinazolin-3(4H)-yl)-2-methylphenyl)-7-(2-hydroxypropan-2-yl)-9H-carbazole-1-carboxamide]"
7,0.075,"Cc1c(-c2c(Cl)cc(C(N)=O)c3[nH]c4cc(C(C)(C)O)ccc4c23)cccc1-n1c(=O)c2cc(F)ccc2n(C)c1=O [Example 8, 3-Chloro-4-(R)-(3-(6-fluoro-1-methyl-2,4-dioxo-1,2-dihydroquinazolin-3(4H)-yl)-2-methylphenyl)-7-(2-hydroxypropan-2-yl)-9H-carbazole-1-carboxamide]"
8,0.088,"Cn1c(=O)n(-c2cccc(-c3c(F)cc(C(N)=O)c4[nH]c5cc(C(C)(C)O)ccc5c34)c2Cl)c(=O)c2cccc(F)c21 [Example 46, 4-(2-Chloro-3-(8-fluoro-1-methyl-2,4-dioxo-1,2-dihydroquinazolin-3(4H)-yl)phenyl)-3-fluoro-7-(2-hydroxypropan-2-yl)-9H-carbazole-1-carboxamide]"
9,0.13,"COc1cccc2c(=O)n(-c3cccc(-c4c(Cl)cc(C(N)=O)c5[nH]c6cc(C(C)(C)O)ccc6c45)c3C)c(=O)n(C)c12 [Example 7, 3-Chloro-7-(2-hydroxypropan-2-yl)-4-(R)-(3-(8-methoxy-1-methyl-2,4-dioxo-1,2-dihydroquinazolin-3(4H)-yl)-2-methylphenyl)-9H-carbazole-1-carboxamide]"
10,0.076,"Cc1c(-c2c(Cl)cc(C(N)=O)c3[nH]c4cc(C(C)(C)O)ccc4c23)cccc1-n1c(=O)c2ccc(F)cc2n(C)c1=O [Example 9, 3-Chloro-4-(R)-(3-(7-fluoro-1-methyl-2,4-dioxo-1,2-dihydroquinazolin-3(4H)-yl)-2-methylphenyl)-7-(2-hydroxypropan-2-yl)-9H-carbazole-1-carboxamide]"
11,0.027,"CC(C)(O)c1ccc2c(c1)[nH]c1c(C(N)=O)cc(Cl)c(-c3cccc(-n4c(=O)[nH]c5c(F)cccc5c4=O)c3Cl)c12 [Example 47, 3-Chloro-4-(R)-(2-chloro-3-(8-fluoro-2,4-dioxo-1,2-dihydroquinazolin-3(4H)-yl)phenyl)-7-(2-hydroxypropan-2-yl)-9H-carbazole-1-carboxamide]"
12,0.13,"Cc1c(-c2c(Cl)cc(C(N)=O)c3[nH]c4cc(C(C)(C)O)ccc4c23)cccc1-n1c(=O)c2ccccc2n(C)c1=O [Example 3, 3-Chloro-7-(2-hydroxypropan-2-yl)-4-(R)-(2-methyl-3-(1-methyl-2,4-dioxo-1,2-dihydroquinazolin-3(4H)-yl)phenyl)-9H-carbazole-1-carboxamide]"
13,0.18,"Cc1c(-c2c(Cl)cc(C(N)=O)c3[nH]c4cc(C(C)(C)O)ccc4c23)cccc1-n1c(=O)c2cccc(C)c2n(C)c1=O [Example 4, 3-Chloro-4-(R)-(3-(1,8-dimethyl-2,4-dioxo-1,2-dihydroquinazolin-3(4H)-yl)-2-methylphenyl)-7-(2-hydroxypropan-2-yl)-9H-carbazole-1-carboxamide]"
14,0.26,"Cc1c(-c2c(F)cc(C(N)=O)c3[nH]c4c(c23)CC[C@H](C(C)(C)O)C4)cccc1-n1c(=O)[nH]c2c(F)cccc2c1=O (single isomer, unassigned) [Example 59]"
15,0.025,"[2H]C([2H])([2H])n1c(=O)n(-c2cccc(-c3c(F)cc(C(N)=O)c4[nH]c5cc(C(C)(C)O)ccc5c34)c2C)c(=O)c2cccc(F)c21 (single isomer, unassigned) [Example 52]"

# Target: Jak2 tyrosine kinase (Homo sapiens (Human), UniProt O60674)
# Sequence (O60674 whole entry): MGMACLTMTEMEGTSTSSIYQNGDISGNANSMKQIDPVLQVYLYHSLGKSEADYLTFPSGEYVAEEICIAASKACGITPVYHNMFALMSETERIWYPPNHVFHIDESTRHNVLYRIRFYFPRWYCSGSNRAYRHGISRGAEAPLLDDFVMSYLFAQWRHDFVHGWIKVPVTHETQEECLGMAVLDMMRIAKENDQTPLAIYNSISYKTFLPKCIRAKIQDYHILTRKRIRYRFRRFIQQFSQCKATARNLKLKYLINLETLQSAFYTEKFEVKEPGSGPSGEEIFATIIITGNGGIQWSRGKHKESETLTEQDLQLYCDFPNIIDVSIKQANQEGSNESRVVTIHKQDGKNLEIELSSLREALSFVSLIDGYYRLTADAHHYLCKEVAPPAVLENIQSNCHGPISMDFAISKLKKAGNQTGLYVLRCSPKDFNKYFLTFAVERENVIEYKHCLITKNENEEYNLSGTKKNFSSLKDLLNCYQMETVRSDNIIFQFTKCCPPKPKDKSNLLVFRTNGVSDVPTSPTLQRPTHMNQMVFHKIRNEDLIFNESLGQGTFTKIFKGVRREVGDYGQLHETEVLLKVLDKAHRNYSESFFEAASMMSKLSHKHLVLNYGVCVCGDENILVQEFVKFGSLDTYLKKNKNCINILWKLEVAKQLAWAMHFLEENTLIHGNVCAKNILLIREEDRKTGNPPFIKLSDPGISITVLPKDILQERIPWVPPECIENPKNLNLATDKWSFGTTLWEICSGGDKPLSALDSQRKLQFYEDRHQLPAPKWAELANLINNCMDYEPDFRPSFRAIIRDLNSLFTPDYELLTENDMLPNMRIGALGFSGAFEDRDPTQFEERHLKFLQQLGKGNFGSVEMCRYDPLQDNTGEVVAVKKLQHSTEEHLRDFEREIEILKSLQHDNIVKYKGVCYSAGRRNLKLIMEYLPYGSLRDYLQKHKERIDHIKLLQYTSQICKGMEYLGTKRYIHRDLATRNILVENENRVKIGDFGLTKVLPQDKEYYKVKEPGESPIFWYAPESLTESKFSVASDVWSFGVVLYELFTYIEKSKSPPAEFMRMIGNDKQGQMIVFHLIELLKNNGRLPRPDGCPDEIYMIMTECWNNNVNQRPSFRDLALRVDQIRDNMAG
# Assay: Jak2 Tyrosine Kinase Assay
# Assay type: biochemical
# Details: not given
row,IC50 [µM],SMILES
1,0.58,"Cc1c(-c2c(F)cc(C(N)=O)c3[nH]c4cc(C(C)(C)O)ccc4c23)cccc1-n1c(=O)[nH]c2c(F)cc(F)cc2c1=O (single isomer, unassigned) [Example 73]"

# Same assay, conditions: Jak2 IC50 over Btk IC50; larger value = more selective for Btk
row,Ratio of Jak2/Btk IC50 values,SMILES
1,29,"Cc1nc(C(N)=O)c2[nH]c3cc(C(C)(C)O)ccc3c2c1-c1cccc(-n2cnc3ccccc3c2=O)c1C [Comparative Example 76, 7-(2-Hydroxypropan-2-yl)-3-methyl-4-(2-methyl-3-(4-oxoquinazolin-3(4H)-yl)phenyl)-9H-pyrido[3,4-b]indole-1-carboxamide, reference compound]"

# Same assay, conditions: selectivity: Jak2 IC50 divided by Btk IC50
row,Ratio of Jak2/Btk IC50 values,SMILES
1,29,"Cc1nc(C(N)=O)c2[nH]c3cc(C(C)(C)O)ccc3c2c1-c1cccc(-n2cnc3ccccc3c2=O)c1C [Comparative Example 76, 7-(2-Hydroxypropan-2-yl)-3-methyl-4-(2-methyl-3-(4-oxoquinazolin-3(4H)-yl)phenyl)-9H-pyrido[3,4-b]indole-1-carboxamide, reference compound]"
2,>4900,"[2H]C([2H])([2H])n1c(=O)n(-c2cccc(-c3c(F)cc(C(N)=O)c4[nH]c5c(c34)CC[C@H](C(C)(C)O)C5)c2C)c(=O)c2cccc(F)c21 (single isomer, unassigned) [Example 62]"
3,440,"Cc1c(-c2c(Cl)cc(C(N)=O)c3[nH]c4cc(C(C)(C)O)ccc4c23)cccc1-n1c(=O)cc2c(F)cccn2c1=O [Example 34, 3-Chloro-4-(3-(5-fluoro-1,3-dioxo-1H-pyrido[1,2-c]pyrimidin-2(3H)-yl)-2-methylphenyl)-7-(2-hydroxypropan-2-yl)-9H-carbazole-1-carboxamide]"
4,690,"COc1cccn2c(=O)n(-c3cccc(-c4c(Cl)cc(C(N)=O)c5[nH]c6cc(C(C)(C)O)ccc6c45)c3C)c(=O)cc12 [Example 37, 3-Chloro-7-(2-hydroxypropan-2-yl)-4-(3-(5-methoxy-1,3-dioxo-1H-pyrido[1,2-c]pyrimidin-2(3H)-yl)-2-methylphenyl)-9H-carbazole-1-carboxamide]"
5,1600,"Cc1c(-c2c(Cl)cc(C(N)=O)c3[nH]c4cc(C(C)(C)O)ccc4c23)cccc1-n1c(=O)cc2c(F)cccn2c1=O [Example 36, 3-Chloro-4-(R)-(3-(5-fluoro-1,3-dioxo-1H-pyrido[1,2-c]pyrimidin-2(3H)-yl)-2-methylphenyl)-7-(2-hydroxypropan-2-yl)-9H-carbazole-1-carboxamide]"
6,3200,"Cc1c(-c2c(Cl)cc(C(N)=O)c3[nH]c4cc(C(C)(C)O)ccc4c23)cccc1-n1c(=O)cc2c(F)cccn2c1=O [Example 35, 3-Chloro-4-(R)-(3-(5-fluoro-1,3-dioxo-1H-pyrido[1,2-c]pyrimidin-2(3H)-yl)-2-methylphenyl)-7-(2-hydroxypropan-2-yl)-9H-carbazole-1-carboxamide]"
7,1100,"Cc1c(-c2c(Cl)cc(C(N)=O)c3[nH]c4c(c23)CC[C@H](C(C)(C)O)C4)cccc1-n1c(=O)[nH]c2c(F)cc(F)cc2c1=O (single isomer, unassigned) [Example 57]"
8,>950,"COc1ccc2c(=O)n(-c3cccc(-c4c(Cl)cc(C(N)=O)c5[nH]c6cc(C(C)(C)O)ccc6c45)c3C)c(=O)n(C)c2c1 (single isomer, unassigned) [Example 5]"
9,1800,"Cc1c(-c2c(F)cc(C(N)=O)c3[nH]c4cc(C(C)(C)O)ccc4c23)cccc1-n1c(=O)cc2c(F)cccn2c1=O [Example 40, 3-Fluoro-4-(R)-(3-(5-fluoro-1,3-dioxo-1H-pyrido[1,2-c]pyrimidin-2(3H)-yl)-2-methylphenyl)-7-(2-hydroxypropan-2-yl)-9H-carbazole-1-carboxamide]"
10,59000,"Cc1c(-c2c(F)cc(C(N)=O)c3[nH]c4c(c23)CC[C@H](C(C)(C)O)C4)cccc1-n1c(=O)c2cccc(F)c2n(C)c1=O (atropisomer, axis not shown) [Example 28, 6-Fluoro-5-(R)-(3-(S)-(8-fluoro-1-methyl-2,4-dioxo-1,2-dihydroquinazolin-3(4H)-yl)-2-methylphenyl)-2-(S)-(2-hydroxypropan-2-yl)-2,3,4,9-tetrahydro-1H-carbazole-8-carboxamide]"
11,1400,"COc1ccc2c(=O)n(-c3cccc(-c4c(Cl)cc(C(N)=O)c5[nH]c6cc(C(C)(C)O)ccc6c45)c3C)c(=O)n(C)c2c1 (single isomer, unassigned) [Example 6]"
12,11000,"Cc1c(-c2c(F)cc(C(N)=O)c3[nH]c4c(c23)CC[C@H](C(C)(C)O)C4)cccc1-n1c(=O)cc2c(F)cccn2c1=O (single isomer, unassigned) [Example 69]"
13,880,"Cc1c(-c2c(Cl)cc(C(N)=O)c3[nH]c4cc(C(C)(C)O)ccc4c23)cccc1-n1c(=O)cc2sccn2c1=O [Example 38, 3-Chloro-4-(R)-(3-(5,7-dioxo-5H-thiazolo[3,2-c]pyrimidin-6(7H)-yl)-2-methylphenyl)-7-(2-hydroxypropan-2-yl)-9H-carbazole-1-carboxamide]"
14,2400,"Cc1c(-c2c(C#N)cc(C(N)=O)c3[nH]c4cc(C(C)(C)O)ccc4c23)cccc1-n1c(=O)c2cccc(F)c2n(C)c1=O [Example 15, 3-Cyano-4-(S)-(3-(8-fluoro-1-methyl-2,4-dioxo-1,2-dihydroquinazolin-3(4H)-yl)-2-methylphenyl)-7-(2-hydroxypropan-2-yl)-9H-carbazole-1-carboxamide]"
15,4000,"Cc1c(-c2c(F)cc(C(N)=O)c3[nH]c4cc(C(C)(C)O)ccc4c23)cccc1-n1c(=O)cc2c(F)cccn2c1=O [Example 41, 3-Fluoro-4-(R)-(3-(5-fluoro-1,3-dioxo-1H-pyrido[1,2-c]pyrimidin-2(3H)-yl)-2-methylphenyl)-7-(2-hydroxypropan-2-yl)-9H-carbazole-1-carboxamide]"
16,1200,"Cc1c(-c2c(Cl)cc(C(N)=O)c3[nH]c4cc(C(C)(C)O)ccc4c23)cccc1-n1c(=O)cc2sccn2c1=O [Example 39, 3-Chloro-4-(R)-(3-(5,7-dioxo-5H-thiazolo[3,2-c]pyrimidin-6(7H)-yl)-2-methylphenyl)-7-(2-hydroxypropan-2-yl)-9H-carbazole-1-carboxamide]"
